# Reference: article PMC9090415, “Discovery of small molecule inhibitors of Plasmodium falciparum apicoplast DNA polymerase” (Journal of Enzyme Inhibition and Medicinal Chemistry, 2022)
# Biological target: P. falciparum apicoplast DNA polymerase (Pf-apPOL) (Plasmodium falciparum, UniProt Q8ILY1)
# Assay: Fluorescence-based high-throughput DNA polymerase assay (molecular beacon), primary screen and dose-response;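 on % inhibition ApPOL 90': test concentration in µM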;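 on % inhibition Apol 40': compound concentration given in µM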;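 on % inhibition apPOL 180': test concentration in µM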
# Type: biochemical
# Details: for DNA Pol: 90 min, 10 µM
# Summary of the method: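 Single-point screening used 10 µM compound with 20 nM polymerase, 20 nM hairpin substrate and 6 µM dNTPs for 90 min at 25 °C. Confirmatory titrations (2.5–80 µM) followed fluorescence at three times, and IC50 was derived from a fit including a cooperativity term n.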
# [1] = 'DNA Pol' of the 186 hits list (primary screen value)
# [2] = first dose-response set, concentration 10
# P. falciparum apicoplast DNA polymerase (Pf-apPOL), sequence (Q8ILY1 entry or part of it): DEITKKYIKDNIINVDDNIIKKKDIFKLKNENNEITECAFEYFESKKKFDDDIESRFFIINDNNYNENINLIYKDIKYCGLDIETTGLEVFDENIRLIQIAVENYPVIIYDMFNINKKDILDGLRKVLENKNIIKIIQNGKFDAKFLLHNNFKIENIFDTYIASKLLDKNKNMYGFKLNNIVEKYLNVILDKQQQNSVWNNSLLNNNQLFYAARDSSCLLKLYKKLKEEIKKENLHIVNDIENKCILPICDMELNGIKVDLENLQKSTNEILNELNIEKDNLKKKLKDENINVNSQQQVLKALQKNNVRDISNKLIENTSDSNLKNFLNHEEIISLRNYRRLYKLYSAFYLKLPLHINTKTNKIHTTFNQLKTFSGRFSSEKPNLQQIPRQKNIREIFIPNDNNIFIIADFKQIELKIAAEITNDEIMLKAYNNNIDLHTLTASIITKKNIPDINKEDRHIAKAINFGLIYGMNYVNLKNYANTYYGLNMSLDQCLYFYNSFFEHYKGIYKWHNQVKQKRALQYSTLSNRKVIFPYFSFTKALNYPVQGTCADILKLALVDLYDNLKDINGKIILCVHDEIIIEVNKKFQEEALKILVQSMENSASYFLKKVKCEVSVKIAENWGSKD
smiles,measurement,setting,value
O=C(NC(C(Cl)Cl)S(=O)(=O)c1ccccc1)c1ccccc1 (centres unmarked) [KU0045239],DNA Pol,[1],41
same,DNA Pol,DNA Pol (primary screen value),41
same,% inhibition Apo pol 10',"DRC-1, concentration 2.5",21.4346%
same,% inhibition Apo pol 10',"DRC-1, concentration 5",25.395%
same,% inhibition Apo pol 10',"DRC-1, concentration 10",48.7805%
same,% inhibition Apo pol 10',"DRC-1, concentration 20",67.0388%
same,% inhibition Apo pol 10',"DRC-1, concentration 40",77.5747%
same,% inhibition Apo pol 10',"DRC-1, concentration 80",80.3513%
same,% inhibition Apol 90',"DRC-1, concentration 2.5",13.64%
same,% inhibition Apol 90',"DRC-1, concentration 5",16.8163%
same,% inhibition Apol 90',"DRC-1, concentration 10",39.9321%
same,% inhibition Apol 90',"DRC-1, concentration 20",58.936%
same,% inhibition Apol 90',"DRC-1, concentration 40",71.3995%
same,% inhibition Apol 90',"DRC-1, concentration 80",76.3715%
same,% inhibition apPOL 180',"DRC-1, concentration 2.5",5.305%
same,% inhibition apPOL 180',"DRC-1, concentration 5",7.81%
same,% inhibition apPOL 180',"DRC-1, concentration 10",29.3225%
same,% inhibition apPOL 180',"DRC-1, concentration 20",48.9159%
same,% inhibition apPOL 180',"DRC-1, concentration 40",64.7265%
same,% inhibition apPOL 180',"DRC-1, concentration 80",71.27%
same,% inhibition Apo pol 5',"DRC-2, concentration 2.5",4%
same,% inhibition Apo pol 5',"DRC-2, concentration 5",18%
same,% inhibition Apo pol 5',"DRC-2, concentration 10",26%
same,% inhibition Apo pol 5',"DRC-2, concentration 20",59%
same,% inhibition Apo pol 5',"DRC-2, concentration 40",65%
same,% inhibition Apo pol 5',"DRC-2, concentration 80",46%
same,% inhibition Apol 40',"DRC-2, concentration 2.5",11%
same,% inhibition Apol 40',"DRC-2, concentration 5",25%
same,% inhibition Apol 40',"DRC-2, concentration 10",36%
same,% inhibition Apol 40',"DRC-2, concentration 20",69%
same,% inhibition Apol 40',"DRC-2, concentration 40",76%
same,% inhibition Apol 40',"DRC-2, concentration 80",62%
same,% inhibition ApPOL 90',"DRC-2, concentration 2.5",11%
same,% inhibition ApPOL 90',"DRC-2, concentration 5",24%
same,% inhibition ApPOL 90',"DRC-2, concentration 10",35%
same,% inhibition ApPOL 90',"DRC-2, concentration 20",68%
same,% inhibition ApPOL 90',"DRC-2, concentration 40",76%
same,% inhibition ApPOL 90',"DRC-2, concentration 80",64%
same,% inhibition apPOL 180',"DRC-2, concentration 2.5",6.53%
same,% inhibition apPOL 180',"DRC-2, concentration 5",11%
same,% inhibition apPOL 180',"DRC-2, concentration 10",21%
same,% inhibition apPOL 180',"DRC-2, concentration 20",58%
same,% inhibition apPOL 180',"DRC-2, concentration 40",69%
same,% inhibition apPOL 180',"DRC-2, concentration 80",58%
"COc1ccc(C(=O)N2CCc3c(nc4cc(-c5ccccc5Cl)[nH]n4c3=O)C2)cn1 [Molecule 26, COc1ccc(cn1)C(=O)N1CCc2c(C1)nc1n(c2=O)[nH]c(c1)c1ccccc1Cl]",DNA Pol,[1],36
same,DNA Pol,DNA Pol (primary screen value),36
same,% inhibition Apo pol 10',"DRC-1, concentration 2.5",0.687%
same,% inhibition Apo pol 10',"DRC-1, concentration 5",20%
same,% inhibition Apo pol 10',"DRC-1, concentration 10",48%
same,% inhibition Apo pol 10',"DRC-1, concentration 20",85%
same,% inhibition Apo pol 10',"DRC-1, concentration 40",91%
same,% inhibition Apo pol 10',"DRC-1, concentration 80",87%
same,% inhibition Apol 90',"DRC-1, concentration 2.5",-2.83%
same,% inhibition Apol 90',"DRC-1, concentration 5",11%
same,% inhibition Apol 90',"DRC-1, concentration 10",33%
same,% inhibition Apol 90',"DRC-1, concentration 20",74%
same,% inhibition Apol 90',"DRC-1, concentration 40",82%
same,% inhibition Apol 90',"DRC-1, concentration 80",82%
same,% inhibition apPOL 180',"DRC-1, concentration 2.5",-5.33%
same,% inhibition apPOL 180',"DRC-1, concentration 5",3.47%
same,% inhibition apPOL 180',"DRC-1, concentration 10",20%
same,% inhibition apPOL 180',"DRC-1, concentration 20",60%
same,% inhibition apPOL 180',"DRC-1, concentration 40",70%
same,% inhibition apPOL 180',"DRC-1, concentration 80",71%
same,% inhibition Apo pol 5',"DRC-2, concentration 2.5",7%
same,% inhibition Apo pol 5',"DRC-2, concentration 5",7%
same,% inhibition Apo pol 5',"DRC-2, concentration 10",28%
same,% inhibition Apo pol 5',"DRC-2, concentration 20",47%
same,% inhibition Apo pol 5',"DRC-2, concentration 40",54%
same,% inhibition Apo pol 5',"DRC-2, concentration 80",47%
same,% inhibition Apol 40',"DRC-2, concentration 2.5",6.48%
same,% inhibition Apol 40',"DRC-2, concentration 5",6.59%
same,% inhibition Apol 40',"DRC-2, concentration 10",30%
same,% inhibition Apol 40',"DRC-2, concentration 20",56%
same,% inhibition Apol 40',"DRC-2, concentration 40",64%
same,% inhibition Apol 40',"DRC-2, concentration 80",62%
same,% inhibition ApPOL 90',"DRC-2, concentration 2.5",6%
same,% inhibition ApPOL 90',"DRC-2, concentration 5",4.56%
same,% inhibition ApPOL 90',"DRC-2, concentration 10",28%
same,% inhibition ApPOL 90',"DRC-2, concentration 20",56%
same,% inhibition ApPOL 90',"DRC-2, concentration 40",63%
same,% inhibition ApPOL 90',"DRC-2, concentration 80",63%
same,% inhibition apPOL 180',"DRC-2, concentration 2.5",3.22%
same,% inhibition apPOL 180',"DRC-2, concentration 5",3%
same,% inhibition apPOL 180',"DRC-2, concentration 10",20%
same,% inhibition apPOL 180',"DRC-2, concentration 20",48%
same,% inhibition apPOL 180',"DRC-2, concentration 40",55%
same,% inhibition apPOL 180',"DRC-2, concentration 80",57%
same,% inhibition Apo pol 10',"first dose-response set, concentration 5",20%
same,% inhibition Apo pol 10',[2],48%
same,% inhibition Apol 90',"first dose-response set, concentration 40",82%
same,% inhibition Apol 90',"first dose-response set, concentration 80",82%
same,% inhibition apPOL 180',[2],20%
"Cc1ccc(-n2nnc(C(=O)O)c2-c2ccccn2)c(F)c1 [Molecule 54, Cc1ccc(c(c1)F)n1nnc(c1c1ccccn1)C(=O)O]",DNA Pol,[1],25
same,DNA Pol,DNA Pol (primary screen value),25
same,% inhibition Apo pol 10',"DRC-1, concentration 2.5",7.865%
same,% inhibition Apo pol 10',"DRC-1, concentration 5",13.3823%
same,% inhibition Apo pol 10',"DRC-1, concentration 10",36.76%
same,% inhibition Apo pol 10',"DRC-1, concentration 20",54.7705%
same,% inhibition Apo pol 10',"DRC-1, concentration 40",63.8546%
same,% inhibition Apo pol 10',"DRC-1, concentration 80",49.8653%
same,% inhibition Apol 90',"DRC-1, concentration 2.5",0.06529%
same,% inhibition Apol 90',"DRC-1, concentration 5",1.171%
same,% inhibition Apol 90',"DRC-1, concentration 10",17.5602%
same,% inhibition Apol 90',"DRC-1, concentration 20",37.4412%
same,% inhibition Apol 90',"DRC-1, concentration 40",61.51%
same,% inhibition Apol 90',"DRC-1, concentration 80",66.8702%
same,% inhibition apPOL 180',"DRC-1, concentration 2.5",-5.444%
same,% inhibition apPOL 180',"DRC-1, concentration 5",-7.146%
same,% inhibition apPOL 180',"DRC-1, concentration 10",5.348%
same,% inhibition apPOL 180',"DRC-1, concentration 20",21.3721%
same,% inhibition apPOL 180',"DRC-1, concentration 40",53.298%
same,% inhibition apPOL 180',"DRC-1, concentration 80",71.3072%
same,% inhibition Apo pol 5',"DRC-2, concentration 2.5",5%
same,% inhibition Apo pol 5',"DRC-2, concentration 5",15%
same,% inhibition Apo pol 5',"DRC-2, concentration 10",31%
same,% inhibition Apo pol 5',"DRC-2, concentration 20",33%
same,% inhibition Apo pol 5',"DRC-2, concentration 40",21%
same,% inhibition Apo pol 5',"DRC-2, concentration 80",-14%
same,% inhibition Apol 40',"DRC-2, concentration 2.5",5.55%
same,% inhibition Apol 40',"DRC-2, concentration 5",10%
same,% inhibition Apol 40',"DRC-2, concentration 10",27%
same,% inhibition Apol 40',"DRC-2, concentration 20",42%
same,% inhibition Apol 40',"DRC-2, concentration 40",48%
same,% inhibition Apol 40',"DRC-2, concentration 80",33%
same,% inhibition ApPOL 90',"DRC-2, concentration 2.5",3.47%
same,% inhibition ApPOL 90',"DRC-2, concentration 5",6%
same,% inhibition ApPOL 90',"DRC-2, concentration 10",22%
same,% inhibition ApPOL 90',"DRC-2, concentration 20",39%
same,% inhibition ApPOL 90',"DRC-2, concentration 40",52%
same,% inhibition ApPOL 90',"DRC-2, concentration 80",45%
same,% inhibition apPOL 180',"DRC-2, concentration 2.5",0.3%
same,% inhibition apPOL 180',"DRC-2, concentration 5",-1.15%
same,% inhibition apPOL 180',"DRC-2, concentration 10",13%
same,% inhibition apPOL 180',"DRC-2, concentration 20",28%
same,% inhibition apPOL 180',"DRC-2, concentration 40",51%
same,% inhibition apPOL 180',"DRC-2, concentration 80",55%
